Structures are written as SMILES.

T1 sequence (P61073 whole entry): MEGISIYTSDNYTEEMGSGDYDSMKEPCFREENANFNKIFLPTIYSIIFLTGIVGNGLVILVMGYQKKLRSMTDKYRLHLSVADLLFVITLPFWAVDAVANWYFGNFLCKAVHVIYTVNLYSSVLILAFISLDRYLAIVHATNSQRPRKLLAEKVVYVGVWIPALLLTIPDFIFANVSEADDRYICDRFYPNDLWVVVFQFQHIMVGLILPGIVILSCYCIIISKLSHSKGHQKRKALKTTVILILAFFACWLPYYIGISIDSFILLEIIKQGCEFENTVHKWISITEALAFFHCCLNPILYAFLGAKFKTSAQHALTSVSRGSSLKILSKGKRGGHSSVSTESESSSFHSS

The test has as its target T1, Human CXCR4 transfected HEK293 cells (Homo sapiens, UniProt P61073).
T1 construct: expressed in transfected cells; host or cells: HEK293
Kind of test: CXCR4 functional calcium assay (calcium flux FLIPR, antagonism of SDF1 response). The following applies: CXCR4 functional activity, antagonism of SDF1 (EC50 concentration), read-out: CXCR4 fKi. The test is classed as cell-based. The procedure, abridged:
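HEK293 cells stably transfected with human CXCR4 were loaded with 2 μM Fluo-4 AM in HBSS containing 2.5 mM probenecid, 0.1% BSA and 10 mM HEPES at pH 7.4 and 37° C. Compound was added first, then SDF1 at its EC50 concentration, and intracellular calcium fluorescence was followed on a FLIPR. Antagonist dose-response curves were fitted.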
Consider `Cc1ccccc1CN1CCC(N2CCCN(c3cccc(C(=O)NCC4CC4)n3)CC2)CC1` [Example 131, N-(Cyclopropylmethyl)-6-(4-{1-[(2-methylphenyl)methyl]piperidin-4-yl}-1,4-diazepan-1-yl)pyridine-2-carboxamide], for which the Ki is 100 to 500 nM. As for `CC(C)N1CCCC(N(C)CCN(C)c2cccc(C(=O)Nc3ccncc3)n2)CC1` (centres unmarked) [Example 238, 6-[Methyl(2-{methyl[1-(propan-2-yl)azepan-4-yl]amino}ethyl)amino]-N-(pyridin-4-yl)pyridine-2-carboxamide], the Ki fell in the range of 100 to 500 nM. Under `Cc1ccnc(N2CCCN(C3CCN(Cc4ccccc4Cl)CC3)CC2)c1` [Example 264, 1-{1-[(2-Chlorophenyl)methyl]piperidin-4-yl}-4-(4-methylpyridin-2-yl)-1,4-diazepane] stands 100 to 500 nM. For the molecule `O=C(NCC1CC1)c1cccc(N2CCCN(C3CCN(Cc4ccc(F)cc4Cl)CC3)CC2)n1` [Example 135], the Ki is less than 20 nM. The result for `C[C@H](N1CCC(N2CCCN(c3cccc(C(=O)NCc4cccnc4)n3)CC2)CC1)C(F)(F)F` [Example 89, N-(Pyridin-3-ylmethyl)-6-(4-{1-[(2S)-1,1,1-trifluoropropan-2-yl]piperidin-4-yl}-1,4-diazepan-1-yl)pyridine-2-carboxamide] reads 20 to 100 nM; that for `CC(C)N1CCC(N2CCCN(c3cccc(-c4nc5ccccc5[nH]4)n3)CC2)CC1` [Example 141, 2-(6-{4-[1-(Propan-2-yl)piperidin-4-yl]-1,4-diazepan-1-yl}pyridine-2-yl)-1H-1,3-benzodiazole], less than 20 nM; that for `CC(C)N1CCC(N2CCN(c3cccc(C(=O)NCC4CC4)n3)CC(O)C2)CC1` (centres unmarked) [Example 183, N-(Cyclopropylmethyl)-6-{6-hydroxy-4-[1-(propan-2-yl)piperidin-4-yl]-1,4-diazepan-1-yl}pyridine-2-carboxamide], 100 to 500 nM. As for `CC(C)N1CCC(N2CCCN(c3cccc(C(=O)N(C)Cc4cccnc4)n3)CC2)CC1` [Example 35, N-Methyl-6-{4-[1-(Propan-2-yl)piperidin-4-yl]-1,4-diazepan-1-yl}-N-(pyridin-3-ylmethyl)pyridine-2-carboxamide], the Ki is 100 to 500 nM. For `O=C(Nc1ccncc1)c1cccc(N2CCCN(C3CCC(N4CCCC4C(F)(F)F)CC3)CC2)n1` (centres unmarked) [Example 257, N-(Pyridin-4-yl)-6-(4-{4-[2-(trifluoromethyl)pyrrolidin-1-yl]cyclohexyl}-1,4-diazepan-1-yl)pyridine-2-carboxamide], the Ki is 500 to 1000 nM. The result for `O=C(NCC1CC1)c1cccc(N2CCCN(C3CCN(C4CCCC4)CC3)CC2)n1` [Example 72, 6-[4-(1-Cyclopentylpiperidin-4-yl)-1,4-diazepan-1-yl]-N-(cyclopropylmethyl)pyridine-2-carboxamide] reads 20 to 100 nM; that for `CCCN1CCC(N2CCCN(c3cccc(C(=O)NCC4CC4)n3)CC2)CC1` [Example 61, N-(Cyclopropylmethyl)-6-[4-(1-propylpiperidin-4-yl)-1,4-diazepan-1-yl]pyridine-2-carboxamide], 100 to 500 nM. Take `Cc1nc(-c2cccc(NCCNC3CCCN(C4CCCC4)CC3)n2)[nH]c1C1CC1` (centres unmarked) [Example 246, 1-Cyclopentyl-N-(2-{[6-(5-cyclopropyl-4-methyl-1H-imidazol-2-yl)pyridin-2-yl]amino}ethyl)azepan-4-amine]: the Ki lay in the range of 20 to 100 nM. As to `Cc1nc(-c2cccc(N3CC[C@@H](NC[C@@H]4CCN(C5CCCC5)C4)C3)n2)[nH]c1C1CC1` [Example 224, (3R)—N-{[(3S)-1-Cyclopentylpyrrolidin-3-yl]methyl}-1-[6-(4-cyclopropyl-5-methyl-1H-imidazol-2-yl)pyridin-2-yl]pyrrolidin-3-amine], the Ki was less than 20 nM. Under `C[C@H](N1CCC(N2CCCN(c3cccc(C(=O)NCc4nccs4)n3)CC2)CC1)C(F)(F)F` [Example 94, N-(1,3-Thiazol-2-ylmethyl)-6-(4-{1-[(2S)-1,1,1-trifluoropropan-2-yl]piperidin-4-yl}-1,4-diazepan-1-yl)pyridine-2-carboxamide] stands 100 to 500 nM.

The record behind these values is US10995091B2 (Proximagen, LLC, priority 2010, dated 2021).
